Experimental data taken from ChEMBL document CHEMBL5390277, “Development of N-Terminally Modified Variants of the CXCR4-Antagonistic Peptide EPI-X4 for Enhanced Plasma Stability” (J Med Chem, 2023).
Square brackets hold non-standard residues; d marks the D form. Peptide text beside a SMILES is read from it.

Tests used:
[1] = molecular target: T1, C-X-C chemokine receptor type 4 (Homo sapiens, UniProt P61073); experiment: Antagonist activity at CXCR4 in human SUP-T1 cells assessed as inhibition of CXCL12-induced ERK phosphorylation preincubated with 15 mins followed by CXCL12 stimulation and measured after 12 mins by flow cytometry analysis; type: functional, cell-based
[2] = molecular target: T1, C-X-C chemokine receptor type 4; experiment: Displacement of 12G5 mAb from CXCR4 in human SUP-T1 cells incubated for 2 hrs by flow cytometry analysis; type: cell-based
[3] = system: Human immunodeficiency virus 1; experiment: Antiviral activity against HIV-1 NL4-3 infected in human TZM-bl cells assessed as inhibition of viral replication preincubated for 15 mins followed by viral infection and measured after 4320 mins by beta-gal screening assay; type: functional, organism-based; details: Human immunodeficiency virus 1, NL4-3, TZM
[4] = system: SUP-T1; experiment: Inhibition of cell migration in human SUP-T1 cells assessed as inhibition of CXCL12 mediated cell migration incubated for 4 hrs in presence of chemoattractant, CXCL12 by Transwell based CellTiter-Glo-chemotaxis assay; type: functional
[5] = Toxicity in Zebrafish embryo incubated for 24 hrs by microscopic analysis; design: species or system Danio rerio; details: in vivo
[6] = molecular target: T1, C-X-C chemokine receptor type 4; experiment: Antagonist activity at CXCR4 (unknown origin) expressed in human HEK293T cells co-expressing SmBiT-beta-arrestin2 preincubated with compound for 10 mins followed by CXCL12 stimulation and measured for 120 mins by beta-arrestin2 recruitment based NanoBiT assay; type: functional, cell-based

T1 sequence (P61073 whole entry): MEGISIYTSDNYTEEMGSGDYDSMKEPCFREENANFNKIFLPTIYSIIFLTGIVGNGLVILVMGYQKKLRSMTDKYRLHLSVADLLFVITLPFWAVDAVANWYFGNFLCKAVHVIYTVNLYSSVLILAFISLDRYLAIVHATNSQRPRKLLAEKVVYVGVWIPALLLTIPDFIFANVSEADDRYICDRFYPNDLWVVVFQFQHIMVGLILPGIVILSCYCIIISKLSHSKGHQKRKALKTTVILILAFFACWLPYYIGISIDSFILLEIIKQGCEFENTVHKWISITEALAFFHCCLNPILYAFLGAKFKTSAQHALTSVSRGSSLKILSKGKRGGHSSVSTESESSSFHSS

Row | Structure (SMILES) | IC50 [1] | IC50 [2] | IC50 [3] | inhibition [4] | Activity [5] | IC50 [6]
1 | CC(C)C[C@H](NC(=O)[C@@H](N)C(C)C)C(=O)N[C@@H](CCCNC(=N)N)C(=O)N[C@@H](Cc1c[nH]c2ccccc12)C(=O)N[C@@H](CO)C(=O)N[C@@H](CCCNC(=N)N)C(=O)N[C@@H](CCCCN)C(=O)N[C@@H](CC(C)C)C(=O)N1CCC[C@H]1C(=O)N[C@@H](CS)C(=O)N[C@H](C(=O)N[C@@H](CO)C(=O)O)C(C)C | 4.33 µM | 0.298 µM | 0.214 µM |  |  | 
2 | CC(C)C[C@H](NC(=O)[C@H](N)C(C)C)C(=O)N[C@@H](CCCNC(=N)N)C(=O)N[C@@H](Cc1c[nH]c2ccccc12)C(=O)N[C@@H](CO)C(=O)N[C@@H](CCCNC(=N)N)C(=O)N[C@@H](CCCCN)C(=O)N[C@@H](CC(C)C)C(=O)N1CCC[C@H]1C(=O)N[C@@H](CS)C(=O)N[C@H](C(=O)N[C@@H](CO)C(=O)O)C(C)C |  | 0.921 µM | 0.696 µM |  |  | 
3 | CSCC[C@H](NC(C)=O)C(=O)N[C@@H](CC(C)C)C(=O)N[C@@H](CCCNC(=N)N)C(=O)N[C@@H](Cc1c[nH]c2ccccc12)C(=O)N[C@@H](CO)C(=O)N[C@@H](CCCNC(=N)N)C(=O)N[C@@H](CCCCN)C(=O)N[C@@H](CC(C)C)C(=O)N1CCC[C@H]1C(=O)N[C@@H](CS)C(=O)N[C@H](C(=O)N[C@@H](CO)C(=O)O)C(C)C |  |  | > 10 µM |  |  | 
4 | CSCC[C@H](NC(=O)[C@H](CCCCN)NC(=O)[C@H](CCCNC(=N)N)NC(=O)[C@H](CO)NC(=O)[C@H](Cc1c[nH]c2ccccc12)NC(=O)[C@H](CCCNC(=N)N)NC(=O)[C@H](CC(C)C)NC(=O)[C@H](CO)NC(C)=O)C(=O)N1CCC[C@H]1C(=O)N[C@@H](CS)C(=O)N[C@H](C(=O)N[C@@H](CO)C(=O)O)C(C)C | > 100 µM | 16.3 µM | 4.06 µM |  |  | 
5 | CC(C)C[C@H](NC(=O)[C@@H](NC(=O)[C@@H]1CCCN1C(=O)[C@@H](NC(=O)[C@H](CO)NC(=O)[C@@H](NC(=O)[C@H](CCC(N)=O)NC(=O)[C@@H]1CCCN1C(=O)[C@@H](NC(=O)[C@H](CCCCN)NC(=O)[C@H](CCCCN)NC(=O)[C@@H](NC(=O)[C@H](Cc1ccc(O)cc1)NC(=O)[C@H](CCCNC(=N)N)NC(=O)[C@@H](NC(=O)[C@@H](N)CC(C)C)C(C)C)[C@@H](C)O)C(C)C)C(C)C)[C@@H](C)O)[C@@H](C)O)C(=O)O (H-LVRYTKKVPQVSTPTL-OH) | > 100 µM | 2.6 µM | > 10 µM |  |  | 
6 | CSCC[C@H](NC(=O)[C@H](CCCCN)NC(=O)[C@H](CCCNC(=N)N)NC(=O)[C@H](CO)NC(=O)[C@H](Cc1c[nH]c2ccccc12)NC(=O)[C@H](CCCNC(=N)N)NC(=O)[C@H](CC(C)C)NC(=O)[C@H](N)Cc1ccccc1)C(=O)N1CCC[C@H]1C(=O)N[C@@H](CS)C(=O)N[C@H](C(=O)N[C@@H](CO)C(=O)O)C(C)C | > 100 µM | 1.44 µM | 0.817 µM |  |  | 
7 | CC[C@H](C)[C@H](NC(C)=O)C(=O)N[C@@H](CC(C)C)C(=O)N[C@@H](CCCNC(=N)N)C(=O)N[C@@H](Cc1c[nH]c2ccccc12)C(=O)N[C@@H](CO)C(=O)N[C@@H](CCCNC(=N)N)C(=O)N[C@@H](CCCCN)C(=O)N[C@@H](CC(C)C)C(=O)N1CCC[C@H]1C(=O)N[C@@H](CS)C(=O)N[C@H](C(=O)N[C@@H](CO)C(=O)O)C(C)C | 42.1 µM | 2.66 µM | 1.67 µM |  |  | 
8 | CSCC[C@H](NC(=O)CN)C(=O)N[C@@H](CCCNC(=N)N)C(=O)N[C@@H](Cc1c[nH]c2ccccc12)C(=O)N[C@@H](CO)C(=O)N[C@@H](CCCNC(=N)N)C(=O)N[C@@H](CCCCN)C(=O)N[C@@H](CCSC)C(=O)N1CCC[C@H]1C(=O)N[C@@H](CS)C(=O)N[C@H](C(=O)N[C@@H](CO)C(=O)O)C(C)C (H-GMRWSRKMPCVS-OH) | > 100 µM | 8.73 µM | 6.67 µM |  |  | 
9 | CC[C@H](C)[C@H](N)C(=O)N[C@H](CC(C)C)C(=O)N[C@@H](CCCNC(=N)N)C(=O)N[C@@H](Cc1c[nH]c2ccccc12)C(=O)N[C@@H](CO)C(=O)N[C@@H](CCCNC(=N)N)C(=O)N[C@@H](CCCCN)C(=O)N[C@@H](CCSC)C(=O)N1CCC[C@H]1C(=O)N[C@@H](CS)C(=O)N[C@H](C(=O)N[C@@H](CO)C(=O)O)C(C)C | > 100 µM | 0.991 µM | 0.934 µM |  |  | 
10 | CSCC[C@H](NC(=O)[C@H](N)CC(C)C)C(=O)N[C@@H](CCCNC(=N)N)C(=O)N[C@@H](Cc1c[nH]c2ccccc12)C(=O)N[C@@H](CO)C(=O)N[C@@H](CCCNC(=N)N)C(=O)N[C@@H](CCCCN)C(=O)N[C@@H](CCSC)C(=O)N1CCC[C@H]1C(=O)N[C@@H](CS)C(=O)N[C@H](C(=O)N[C@@H](CO)C(=O)O)C(C)C (H-[dL]MRWSRKMPCVS-OH) |  |  |  | Dose-Dependent Effect | Non-Toxic | 
11 | CSCC[C@@H](NC(C)=O)C(=O)N[C@@H](CC(C)C)C(=O)N[C@@H](CCCNC(=N)N)C(=O)N[C@@H](Cc1c[nH]c2ccccc12)C(=O)N[C@@H](CO)C(=O)N[C@@H](CCCNC(=N)N)C(=O)N[C@@H](CCCCN)C(=O)N[C@@H](CC(C)C)C(=O)N1CCC[C@H]1C(=O)N[C@@H](CS)C(=O)N[C@H](C(=O)N[C@@H](CO)C(=O)O)C(C)C |  |  | > 10 µM |  |  | 
12 | CC[C@@H](C)[C@@H](N)C(=O)N[C@@H](CC(C)C)C(=O)N[C@@H](CCCNC(=N)N)C(=O)N[C@@H](Cc1c[nH]c2ccccc12)C(=O)N[C@@H](CO)C(=O)N[C@@H](CCCNC(=N)N)C(=O)N[C@@H](CCCCN)C(=O)N[C@@H](CC(C)C)C(=O)N1CCC[C@H]1C(N)=O (H-[dI]LRWSRKLP-NH2) | 4.54 µM | 0.453 µM | 0.551 µM | Dose-Dependent Effect | Non-Toxic | 0.118 µM
13 | CSCC[C@H](NC(=O)[C@H](N)Cc1ccccc1)C(=O)N[C@@H](CCCNC(=N)N)C(=O)N[C@@H](Cc1c[nH]c2ccccc12)C(=O)N[C@@H](CO)C(=O)N[C@@H](CCCNC(=N)N)C(=O)N[C@@H](CCCCN)C(=O)N[C@@H](CCSC)C(=O)N1CCC[C@H]1C(=O)N[C@@H](CS)C(=O)N[C@H](C(=O)N[C@@H](CO)C(=O)O)C(C)C | > 100 µM | 1.47 µM | 1.69 µM | Dose-Dependent Effect |  | 
14 | CC[C@H](C)[C@H](N)C(=O)N[C@H](CC(C)C)C(=O)N[C@@H](CCCNC(=N)N)C(=O)N[C@@H](Cc1c[nH]c2ccccc12)C(=O)N[C@@H](CO)C(=O)N[C@@H](CCCNC(=N)N)C(=O)N[C@@H](CCCCN)C(=O)N[C@@H](CC(C)C)C(=O)N1CCC[C@H]1C(=O)N[C@@H](CS)C(=O)N[C@H](C(=O)N[C@@H](CO)C(=O)O)C(C)C | > 100 µM | 1.73 µM | 0.436 µM |  |  | 
15 | CSCC[C@H](NC(=O)[C@H](CCCCN)NC(=O)[C@H](CCCNC(=N)N)NC(=O)[C@H](CO)NC(=O)[C@H](Cc1c[nH]c2ccccc12)NC(=O)[C@H](CCCNC(=N)N)NC(=O)[C@H](CC(C)C)NC(=O)[C@@H](CO)NC(C)=O)C(=O)N1CCC[C@H]1C(=O)N[C@@H](CS)C(=O)N[C@H](C(=O)N[C@@H](CO)C(=O)O)C(C)C | > 100 µM | 8.62 µM | 0.775 µM |  |  | 
16 | CC[C@@H](C)[C@@H](NC(C)=O)C(=O)N[C@@H](CC(C)C)C(=O)N[C@@H](CCCNC(=N)N)C(=O)N[C@@H](Cc1c[nH]c2ccccc12)C(=O)N[C@@H](CO)C(=O)N[C@@H](CCCNC(=N)N)C(=O)N[C@@H](CCCCN)C(=O)N[C@@H](CC(C)C)C(=O)N1CCC[C@H]1C(=O)N[C@@H](CS)C(=O)N[C@H](C(=O)N[C@@H](CO)C(=O)O)C(C)C | 17.2 µM | 7.72 µM | > 10 µM |  |  | 
17 | CSCC[C@H](NC(=O)[C@H](CCCCN)NC(=O)[C@H](CCCNC(=N)N)NC(=O)[C@H](CO)NC(=O)[C@H](Cc1c[nH]c2ccccc12)NC(=O)[C@H](CCCNC(=N)N)NC(=O)[C@@H](CC(C)C)NC(=O)[C@@H](N)CCSC)C(=O)N1CCC[C@H]1C(=O)N[C@@H](CS)C(=O)N[C@H](C(=O)N[C@@H](CO)C(=O)O)C(C)C |  | 0.824 µM |  |  |  | 
18 | CSCC[C@H](NC(=O)[C@H](CCCCN)NC(=O)[C@H](CCCNC(=N)N)NC(=O)[C@H](CO)NC(=O)[C@H](Cc1c[nH]c2ccccc12)NC(=O)[C@H](CCCNC(=N)N)NC(=O)[C@H](CC(C)C)NC(=O)[C@H](N)CC(C)C)C(=O)N1CCC[C@H]1C(=O)N[C@@H](CS)C(=O)N[C@H](C(=O)N[C@@H](CO)C(=O)O)C(C)C (H-[dL]LRWSRKMPCVS-OH) | 3.66 µM | 0.31 µM | 0.153 µM | Dose-Dependent Effect | Non-Toxic | 0.257 µM
19 | c1cc(CN2CCCNCCNCCCNCC2)ccc1CN1CCCNCCNCCCNCC1 |  |  | 0.03 µM | Dose-Dependent Effect |  | 
20 | CSCC[C@H](NC(=O)[C@@H](N)CCSC)C(=O)N[C@@H](CCCNC(=N)N)C(=O)N[C@@H](Cc1c[nH]c2ccccc12)C(=O)N[C@@H](CO)C(=O)N[C@@H](CCCNC(=N)N)C(=O)N[C@@H](CCCCN)C(=O)N[C@@H](CCSC)C(=O)N1CCC[C@H]1C(=O)N[C@@H](CS)C(=O)N[C@H](C(=O)N[C@@H](CO)C(=O)O)C(C)C (H-MMRWSRKMPCVS-OH) | 7.3 µM | 0.105 µM | 0.129 µM |  |  | 
